These molecules were tested against T1, rat peripheral BZD receptor (Rattus norvegicus, UniProt P16257) (assay: radioligand binding test, [3H]PK 11195, rat heart membranes). Details: 10 μM test compound; 0.2 nM [3H]PK 11195; rat heart membrane homogenates; 15 min at 22° C.
T1 construct: rat heart membranes and [3H]PK 11195; from tissue; host or cells: rat heart membrane homogenates
Procedure: Evaluation of the in vitro affinity of test substances for the rat peripheral BZD receptor was performed according to Le Fur et al. (1983). Life Sci., 33: 449-457. For this purpose, rat heart membranes and [3H]PK 11195 (1-(2-chlorophenyl)-N-methyl-N-(1-methylpropyl)-3-isoquinolinecarboxamide) were used in a radioligand binding test system.
In detail, membrane homogenates of heart (20 μg protein) are incubated for 15 min at 22° C. with 0.2 nM [3H]PK 11195 in the absence or presence of the test compound in a buffer containing 50 mM Tris-HCl (pH 7.4) and 10 mM MgCl2 (96-well plate format). Compound addition is 100× solution in solvent. Nonspecific binding is determined in the presence of 10 μM PK 11195. Following incubation, the samples are filtered rapidly under vacuum through glass fiber filters (GF/B, Packard) presoaked with 0.3% PEI and rinsed several times with ice-cold 50 mM Tris-HCl using a 96-sample cell harvester (Unifilter, Packard). The filters are dried, then counted for radioactivity in a scintillation counter (Topcount, Packard) using a scintillation cocktail (Microscint 0, Packard). The results are expressed as a percent inhibition of the control radioligand specific binding.
The standard reference compound is PK 11195, which is tested in each experiment concurrently with the test compounds.
For analysis, the specific ligand binding to the receptors is defined as the difference between the total binding and the nonspecific binding determined in the presence of an excess of unlabelled ligand. The results are expressed as a percent of control specific binding ((measured specific binding/control specific binding)×100) obtained in the presence of the test compounds.

Compound	inhibition at 10 µM
CCSc1nc(N2CCOCC2)cc(C)c1C(=O)NCCCC(C)(C)C [compound 2, N-(4,4-Dimethyl-pentyl)-2-ethylsulfanyl-4-methyl-6-morpholin-4-yl-pyridine-3-carboxylic acid amide]	43%
Cc1c(C(=O)NCc2cccc(F)c2)c(C(C)C)nc2cc(C(F)(F)F)ccc12 [compound 1, N-[(3-Fluorophenyl)-methyl]-2-isopropyl-4-methyl-7-(trifluoromethyl)-quinoline-3-carboxylic acid amide]	87%
CCSc1nc(N2CCOCC2)cc(C)c1C(=O)NCc1ccc(Cl)cc1 [compound 3, N-[(4-Chlorophenyl)-methyl]-2-ethylsulfanyl-4-methyl-6-morpholin-4-yl-pyridine-3-carboxylic acid amide]	91%
COc1nc(N2CCOCC2)cc(C)c1C(=O)NCc1ccc(Cl)cc1 [compound 4, N-[(4-Chlorophenyl)-methyl]-2-methoxy-4-methyl-6-morpholin-4-yl-pyridine-3-carboxylic acid amide]	49%
O=C(NCC1CC2CCC1C2)c1cccnc1SCCC(F)(F)c1ccc(F)cc1 (stereo not drawn) [compound 6, N-(5-Bicyclo[2.2.1]heptanyl-methyl)-2-[[3,3-difluoro-3-(4-fluorophenyl)-propyl]sulfanyl]-pyridine-3-carboxylic acid amide]	99%
Cc1cc(N2CCOCC2)nc(C2CC2)c1C(=O)NCc1ccc(Cl)cc1 [compound 7, N-[(4-Chlorophenyl)-methyl]-2-cyclopropyl-4-methyl-6-morpholin-4-yl-pyridine-3-carboxylic acid amide]	57%
O=C(NCc1ccc(F)cc1)c1cccnc1SCCC(F)(F)c1ccc(F)cc1 [compound 5, 2-[[3,3-Difluoro-3-(4-fluorophenyl)-propyl]sulfanyl]-N-[(4-fluorophenyl)-methyl]-pyridine-3-carboxylic acid amide]	102%

Next, values leading:

inhibition at 10 µM	Compound
103%	COc1nc(N2CCOCC2)cc(C)c1C(=O)NCc1cccc(F)c1 [compound 8, N-[(3-Fluorophenyl)-methyl]-2-methoxy-4-methyl-6-morpholin-4-yl-pyridine-3-carboxylic acid amide]
96%	CC(C)CCNC(=O)c1cccnc1SCCC(F)(F)c1ccc(F)cc1 [compound 16, 2-[[3,3-Difluoro-3-(4-fluorophenyl)-propyl]sulfanyl]-N-(3-methyl-butyl)-pyridine-3-carboxylic acid amide]
91%	CCCc1nc(N2CCOCC2)cc(C)c1C(=O)NCc1cccc(F)c1 [compound 10, N-[(3-Fluorophenyl)-methyl]-4-methyl-6-morpholin-4-yl-2-propyl-pyridine-3-carboxylic acid amide]
90%	Cc1cc(N2CCOCC2)nc(C2CC2)c1C(=O)NCc1cccc(F)c1 [compound 15, 2-Cyclopropyl-N-[(3-fluorophenyl)-methyl]-4-methyl-6-morpholin-4-yl-pyridine-3-carboxylic acid amide]
87%	Cc1cc(N2CCOCC2)nc(C2CC2)c1C(=O)NCc1ccc(F)cc1 [compound 11, 2-Cyclopropyl-N-[(4-fluorophenyl)-methyl]-4-methyl-6-morpholin-4-yl-pyridine-3-carboxylic acid amide]
95%	CCSc1nc(N2CCOCC2)cc(C)c1C(=O)NCc1cccc(F)c1 [compound 13, 2-Ethylsulfanyl-N-[(3-fluorophenyl)-methyl]-4-methyl-6-morpholin-4-yl-pyridine-3-carboxylic acid amide]
53%	COc1nc(N2CCOCC2)cc(C)c1C(=O)NCc1ccc(F)cc1 [compound 9, N-[(4-Fluorophenyl)-methyl]-2-methoxy-4-methyl-6-morpholin-4-yl-pyridine-3-carboxylic acid amide]
97%	CC(C)CCNC(=O)c1cccnc1SCCC(F)(F)c1ccc(F)c(F)c1 [compound 12, 2-[[3-(3,4-Difluoro-phenyl)-3,3-difluoro-propyl]-sulfanyl]-N-(3-methyl-butyl)-pyridine-3-carboxylic acid amide]

Source: patent US9775843B2, “Treatment and/or prophylaxis of TSPO mediated diseases and/or disorders” (GRÜNENTHAL GMBH, priority 2012, dated 2017)
